The results in this text go back to patent US11028079B2 (ConverGene LLC, priority 2015, dated 2021).

The assay addresses T1, BRD4 bromodomains (Homo sapiens, UniProt O60885).
T1 construct: fused on or other part: T7 phage capsid protein (phage-display fusion; the phage DNA is read out by qPCR)
As to the kind of experiment: BROMOscan bromodomain competition binding assay (DiscoveRx). The following applies: Kd from 11 compound concentrations ranging from 0 to 10 μM, read-out: BROMOscan Relative Activity. The procedure, abridged: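 Compounds in 0.1% DMSO/0.9% MEG competed with a solid-phase acetylated peptide for T7 phage-fused BRD4 bromodomains, with the retained bromodomain measured by qPCR.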

Consider `Cc1noc(C)c1-c1ccc2nc(N3CCN(CCN(C)C)CC3)nc(NCc3cncc(Cl)c3)c2c1` [Example 81, N-((5-chloropyridin-3-yl)methyl)-2-(4-(2-(dimethylamino)ethyl)piperazin-1-yl)-6-(3,5-dimethylisoxazol-4-yl)quinazolin-4-amine], for which the Kd was below 500 nM.

`Cc1nc(C)c(CNC(=O)c2nc(NCc3cccc(Cl)c3)c3cc(-c4c(C)noc4C)ccc3n2)s1` [Example 260, 4-((3-chlorobenzyl)amino)-6-(3,5-dimethylisoxazol-4-yl)-N-((2,4-dimethylthiazol-5-yl)methyl)quinazoline-2-carboxamide]: the Kd is below 500 nM. With `C[C@H](O)CN1CCN(c2nc(NCc3cccc(Cl)c3)c3cc(-c4ccc(=O)n(C)c4)ccc3n2)CC1` [Example 111, (S)-5-(4-((3-chlorobenzyl)amino)-2-(4-(2-hydroxypropyl)piperazin-1-yl)quinazolin-6-yl)-1-methylpyridin-2(1H)-one], the Kd is below 500 nM. Then `Cc1noc(C)c1-c1ccc2nc(C(=O)NC3CCC(F)(F)CC3)nc(NCc3cccc(Cl)c3)c2c1` [Example 252, 4-((3-chlorobenzyl)amino)-N-(4,4-difluorocyclohexyl)-6-(3,5-dimethylisoxazol-4-yl)quinazoline-2-carboxamide], with 500 to 5000 nM; and `Cn1cc(-c2ccc3nc(-c4cnn(CC(C)(C)O)c4)nc(NCc4cncc(Cl)c4)c3c2)ccc1=O` [Example 148, 5-(4-(((5-chloropyridin-3-yl)methyl)amino)-2-(1-(2-hydroxy-2-methylpropyl)-1H-pyrazol-4-yl)quinazolin-6-yl)-1-methylpyridin-2(1H)-one], with 500 to 5000 nM.

Regarding `Cc1noc(C)c1-c1ccc2nc(-c3ccc(CO)nc3)nc(NCc3cccc(Cl)c3)c2c1` [Example 63, (5-(4-((3-chlorobenzyl)amino)-6-(3,5-dimethylisoxazol-4-yl)quinazolin-2-yl)pyridin-2-yl)methanol], the Kd is below 500 nM.

On to `CC(=O)N1CCN(c2nc(NCc3cccc(Cl)c3)c3cc(-c4c(C)noc4C)ccc3n2)CC1` [Example 184, 1-(4-(4-((3-chlorobenzyl)amino)-6-(3,5-dimethylisoxazol-4-yl)quinazolin-2-yl)piperazin-1-yl)ethanone], for which the Kd was below 500 nM. As to `Cc1noc(C)c1-c1ccc2nc(N3CCN(C[C@@H](C)O)CC3)nc(NCc3cccc(Cl)c3)c2c1` [Example 46, (R)-1-(4-(4-((3-chlorobenzyl)amino)-6-(3,5-dimethylisoxazol-4-yl)quinazolin-2-yl)piperazin-1-yl)propan-2-ol], the Kd is below 500 nM. As for `Cc1noc(C)c1-c1ccc2nc(-c3cnn(CCO)c3)nc(NCc3cncc(Cl)c3)c2c1` [Example 144, 2-(4-(4-(((5-chloropyridin-3-yl)methyl)amino)-6-(3,5-dimethylisoxazol-4-yl)quinazolin-2-yl)-1H-pyrazol-1-yl)ethanol], the Kd is below 500 nM. For `Cc1noc(C)c1-c1ccc2nc(C(=O)NCc3cccnc3)nc(NCc3cccc(Cl)c3)c2c1` [Example 189, 4-((3-chlorobenzyl)amino)-6-(3,5-dimethylisoxazol-4-yl)-N-(pyridin-3-ylmethyl)quinazoline-2-carboxamide], the Kd was below 500 nM. The same measure for `Cc1noc(C)c1-c1ccc2nc(C(=O)NCc3ccc(Cl)cc3)nc(NCc3cccc(Cl)c3)c2c1` [Example 168, N-(4-chlorobenzyl)-4-((3-chlorobenzyl)amino)-6-(3,5-dimethylisoxazol-4-yl)quinazoline-2-carboxamide]: above 5000 nM; for `Cc1noc(C)c1-c1ccc2nc(C(=O)NCc3cncn3C)nc(N3CCOC[C@@H]3c3ccccc3)c2c1` [Example 279, (S)-6-(3,5-dimethylisoxazol-4-yl)-N-((1-methyl-1H-imidazol-5-yl)methyl)-4-(3-phenylmorpholino)quinazoline-2-carboxamide]: below 500 nM. As for `Cc1noc(C)c1-c1ccc2nc(N3CCN(C(=O)CN)CC3)nc(NCc3cccc(Cl)c3)c2c1` [Example 55, 2-amino-1-(4-(4-((3-chlorobenzyl)amino)-6-(3,5-dimethylisoxazol-4-yl)quinazolin-2-yl)piperazin-1-yl)ethanone], the Kd was below 500 nM.
